Experiments:
[1] = target: T1, IDH1 R132H (Homo sapiens, UniProt O75874, R132H); test: Biochemical assay for IDH inhibition (NADPH fluorescence), mutant IDH1 R132H; conditions: 50 nM IDH1-R132H, 1 hour pre-incubation, in triplet
T1 construct: 6xHis
From the text: (§1) The present disclosure provides a biochemical assay method for detecting the IDH inhibition and selectivity of the compounds by detecting IDH enzyme activity directly.
(§2) Wild-type IDH enzymes convert NADP^+ to NADPH when catalyzing the α-KG producing reaction. Mutant IDH enzymes convert NADPH to NADP^+ when catalyzing the D-2-HG producing reaction. So, the activity of wild-type and mutant IDH1/2 could be measured by monitoring NADPH level change as NADPH is fluorescent (Excitation 340 nm, Emission 460 nm). By monitoring the change of NADPH level in the reaction, the enzyme activity could be determined rapidly and efficiently and IC50 of a compound could also be assayed.
(§3) The test compounds are prepared into 50 mM stock solutions in DMSO and stored at −20° C. Each test compound stock is further diluted to obtain a 100× stock solution at a concentration of 400 μM, 200 μM, 100 μM, 50 μM, 25 μM, 12.5 μM, 6.25 μM and 3.125 μM, respectively, for the final use on the day of test (the concentration range of 100× stock solutions might be adjusted to cover the estimated IC50 of a specific test compound).
(§4) Inhibition of Mutant IDH1 (R132H or R132C):
(§5) To assay the enzymatic activity of mutant IDH1 proteins, 25 nM IDH1-R132C or 50 nM IDH1-R132H protein solutions are prepared in 20 mM Tris-HCl pH7.5, 150 mM NaCl, 10 mM MgCl2, 1 mM DTT, 0.05 mg/ml BSA and 1.33 mM α-KG. 148 μL 25 nM IDH1-R132C or 50 nM IDH1-R132H protein solutions are mixed with 2 μL DMSO (vehicle control for test compounds) or an above-mentioned 100× stock solution of a test compound and incubated for 1 hour at room temperature. Extra reactions containing 148 μL no-enzyme solution (20 mM Tris-HCl pH7.5, 150 mM NaCl, 10 mM MgCl2, 1 mM DTT, 0.05 mg/ml BSA and 1.33 mM α-KG) and 2 μL DMSO are also set up as background controls. Then each reaction is initiated by adding 50 μL 80 μM NADPH solution prepared in 20 mM Tris-HCl pH7.5, 150 mM NaCl, 10 mM MgCl2, 1 mM DTT and 0.05 mg/ml BSA. BioTek Synergy H1 Microplate reader (BioTek Instruments Inc., Winooski, U.S.) is employed to monitor the NADPH fluorescence (Excitation 340 nm, Emission 460 nm) every 42 seconds for 15 minutes. NADPH change rate is determined according to the linear phase of the fluorescence-time curve and results from the background control reactions are used as background subtraction to calculate the net NADPH change rates of other reactions. The net NADPH change rates from the vehicle control reactions are used as 100% enzymatic activity and thus the relative enzymatic activity of reactions with test compounds added could be determined. Then a dose-response curve is drawn for each test compound and the corresponding IC50 is calculated. The IC50 value is used to evaluate the inhibition and selectivity of each test compound on the IDH enzymatic activity.
(§6) The IDH inhibition activity of the compounds were assessed according to Test 2 of the Biological Assay section. The test for mutant IDH1 R132H and IDH1 R132C inhibition of each compound was carried out in triplet. As used in Table 5, “A” refers to an inhibitory activity against IDH1 R132H or IDH1 R132C with an IC50<0.1 μM; “B” refers to an inhibitory activity against IDH1 R132H or IDH1 R132C with an IC50 from 0.1 μM to 0.5 μM; “C” refers to an inhibitory activity against IDH1 R132H or IDH1 R132C with an IC50 from 0.5 μM to 1 μM; “D” refers to an inhibitory activity against IDH1 R132H or IDH1 R132C with an IC50>1 μM.

[2] = target: T2, IDH1 R132C (Homo sapiens, UniProt O75874, R132C); test: Biochemical assay for IDH inhibition (NADPH fluorescence), mutant IDH1 R132C; conditions: 25 nM IDH1-R132C, 1 hour pre-incubation, in triplet
T2 construct: 6xHis
From the text: as §1, §2, §3, §4, §5, §6

[3] = target: T3, IDH (endogenous IDH1 R132C) in HT1080 cell (Homo sapiens, UniProt O75874, R132C); test: Cell-based assay for IDH inhibition (decrease of D-2-HG) in HT1080 cells; conditions: human fibrosarcoma cell line HT1080, 16 hours treatment, D-2-HG by LC-MS, in triplet
T3 construct: which harbor endogenous heterozygous IDH1 R132C and R132H mutation respectively and accumulate D-2-HG
From the text: The present disclosure also provides a cell-based method for assaying IDH inhibition and selectivity of the compounds in human fibrosarcoma cell line HT1080 and cholangiocarcinoma cell line HCCC 9810, which harbor endogenous heterozygous IDH1 R132C and R132H mutation respectively and accumulate D-2-HG. Tumor -derived IDH mutant lost its normal activity of producing α-KG, and gained a new activity of producing D-2-HG. D-2-HG is a metabolite specifically elevated in tumor cells expressing mutant IDH1 or IDH2 proteins. When treating such mutant IDH-expressing tumor cells with an effective IDH inhibitor, the synthesis of D-2-HG is blocked, and D-2-HG concentration is decreased by the oxidation reaction catalyzed by the endogenous D-2-HG dehydrogenase.
To perform a cell-based IDH inhibition assay, HT1080 and HCCC 9810 cells (or other cell lines harboring different IDH mutations) are cultured in DMEM supplemented with 10% FBS. The cells are treated with compounds of present disclosure at various different concentrations. 16 hours after the treatment, culture medium supernatants are removed and cell metabolites are extracted by 40% methanol and 40% acetonitrile in water (pre-chilled under −80° C.) at 4° C. for 1 hour. The extract supernatants are collected and cell debris are removed via high speed centrifugation. The resulting metabolite extracts are analyzed on an Agilent LC-MS system (model: 1290-6470) for 2-HG and glutamate concentration. A HILIC-Z column (2.1 mm×100 mm, […]) is employed on HPLC. Mobile phase A is 15 mM CH3COONH4 and 0.3% NH3·H2O in water. Mobile phase B is 15 mM CH3COONH4 and 0.3% NH3·H2O in 90% MeCN/10% H2O solvent. An 19% solvent A and 81% solvent B isocratic gradient method is used at a flow rate of 0.3 ml/min. D-2-HG is ionized under negative ion spray mode and detected through the multiple-reaction monitoring of a mass transition pair at m/z=147.0/128.9 and 147.0/85.1. Glutamate is ionized under ion spray mode and detected on negative polarity multiple-reaction monitoring of a mass transition pair at m/z=146/102 and 146/128 and its level is used to normalize 2-HG concentration. The activity of cellular mutant IDH proteins in the presence of each test compound at different concentrations can be represented by relative D-2-HG concentration to negative control samples (i.e., cells are treated with DMSO only), and the IC50 value could be determined to evaluate the inhibition and selectivity of each test compound on the IDH enzymatic activity.
The IDH inhibition activity of the compounds were assessed in human fibrosarcoma cell line HIT1080 according to Test 3 of the Biological Assay section. The test for IDH inhibition of each compound was carried out in triplet. As used in Table 6, “A” refers to an IDH inhibitory activity with an IC50<0.1 μM; “B” refers to an IDH inhibitory activity with an IC50 from 0.1 μM to 0.5 μM; “C” refers to an IDH inhibitory activity with an IC50 from 0.5 μM to 1 μM; “D” refers to an IDH inhibitory activity with an IC50>1 μM.

T1 sequence (O75874 whole entry R132H): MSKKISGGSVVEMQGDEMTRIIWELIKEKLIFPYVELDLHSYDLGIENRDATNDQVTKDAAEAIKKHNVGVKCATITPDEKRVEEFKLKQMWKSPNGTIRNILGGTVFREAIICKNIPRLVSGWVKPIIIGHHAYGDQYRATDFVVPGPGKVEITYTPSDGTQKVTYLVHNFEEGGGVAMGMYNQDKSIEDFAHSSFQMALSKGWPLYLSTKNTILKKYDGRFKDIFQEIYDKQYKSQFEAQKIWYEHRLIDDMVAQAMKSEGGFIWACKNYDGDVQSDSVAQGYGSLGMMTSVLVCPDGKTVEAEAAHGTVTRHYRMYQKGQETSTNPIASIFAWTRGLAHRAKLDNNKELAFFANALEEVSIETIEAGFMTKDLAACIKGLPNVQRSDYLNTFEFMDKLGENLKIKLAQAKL
T2 sequence (O75874 whole entry R132C): as the sequence (O75874 whole entry R132H) above, with H132C counted along it
T3 sequence (O75874 2-414 R132C): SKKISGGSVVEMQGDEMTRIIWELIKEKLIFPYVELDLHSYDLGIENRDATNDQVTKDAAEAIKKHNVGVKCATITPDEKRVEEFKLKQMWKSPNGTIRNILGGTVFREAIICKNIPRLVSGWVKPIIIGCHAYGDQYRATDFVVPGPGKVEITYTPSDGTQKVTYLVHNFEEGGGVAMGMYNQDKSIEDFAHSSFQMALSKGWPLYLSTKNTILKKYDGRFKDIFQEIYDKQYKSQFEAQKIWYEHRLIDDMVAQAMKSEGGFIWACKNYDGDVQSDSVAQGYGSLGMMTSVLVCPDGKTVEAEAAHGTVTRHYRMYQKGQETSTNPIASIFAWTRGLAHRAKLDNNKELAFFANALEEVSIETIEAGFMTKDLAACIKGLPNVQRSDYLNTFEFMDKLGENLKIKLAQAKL

| Compound | IC50 [1] [µM] | IC50 [2] [µM] | IC50 [3] [µM] |
| --- | --- | --- | --- |
| CCN1Cc2c(ccnc2N[C@@H](C)c2ccc(Oc3cccnc3)c(F)c2)C1=O [Compound 13, (S)-2-ethyl-4-((1-(3-fluoro-4-(pyridin-3-yloxy)phenyl)ethyl)amino)-2,3-dihydro-1H-pyrrolo[3,4-c]pyridin-1-one] | > 1 | > 1 | > 1 |
| CCN1Cc2c(ccnc2N[C@@H](C)c2ccc(OC3CCCCC3)c(F)c2)C1=O [Compound 14, (S)-4-((1-(4-(cyclohexyloxy)-3-fluorophenyl)ethyl)amino)-2-ethyl-2,3-dihydro-1H-pyrrolo[3,4-c]pyridin-1-one] | > 1 | > 1 | > 1 |
| Cc1ccc(Oc2ccc([C@H](C)Nc3nccc4c3CN(CCF)C4=O)cc2F)cc1 [Compound 16, (S)-4-((1-(3-fluoro-4-(p-tolyloxy)phenyl)ethyl)amino)-2-(2-fluoroethyl)-2,3-dihydro-1H-pyrrolo[3,4-c]pyridin-1-one] | 0.5 to 1 | 0.5 to 1 | > 1 |
| CCN1Cc2c(N[C@@H](C)c3ccc(Oc4ccc(C)cc4)c(F)c3)ncc(F)c2C1=O [Compound 18, (S)-2-ethyl-7-fluoro-4-((1-(3-fluoro-4-(p-tolyloxy)phenyl)ethyl)amino)-2,3-dihydro-1H-pyrrolo[3,4-c]pyridin-1-one] | 0.1 to 0.5 | > 1 | > 1 |
| CCN1Cc2c(N[C@@H](C)c3ccc(OC4CCCC4)c(F)c3)ncc(F)c2C1=O [Compound 19, (S)-4-((1-(4-(cyclopentyloxy)-3-fluorophenyl)ethyl)amino)-2-ethyl-7-fluoro-2,3-dihydro-1H-pyrrolo[3,4-c]pyridin-1-one] | > 1 | > 1 | > 1 |
| CCN1Cc2c(ccnc2N[C@@H](C)c2cc(F)c(Oc3ccc(C)cc3)cc2F)C1=O [Compound 20, (S)-4-((1-(2,5-difluoro-4-(p-tolyloxy)phenyl)ethyl)amino)-2-ethyl-2,3-dihydro-1H-pyrrolo[3,4-c]pyridin-1-one] | 0.1 to 0.5 | 0.1 to 0.5 | 0.5 to 1 |
| CCN1Cc2c(ccnc2N[C@@H](C)c2ccc(Oc3ccnc(C(C)(C)C)c3)c(F)c2)C1=O [Compound 25, (S)-4-((1-(4-((2-(tert-butyl)pyridin-4-yl)oxy)-3-fluorophenyl)ethyl)amino)-2-ethyl-2,3-dihydro-1H-pyrrolo[3,4-c]pyridin-1-one] | 0.1 to 0.5 | 0.1 to 0.5 | 0.5 to 1 |

Now from value to molecule:

| IC50 [1] [µM] | IC50 [2] [µM] | IC50 [3] [µM] | Compound |
| --- | --- | --- | --- |
| 0.1 to 0.5 | 0.5 to 1 | > 1 | CCN1Cc2c(ccnc2N[C@@H](C)c2ccc(OC3CCCC3)c(F)c2)C1=O [Compound 15, (S)-4-((1-(4-(cyclopentyloxy)-3-fluorophenyl)ethyl)amino)-2-ethyl-2,3-dihydro-1H-pyrrolo[3,4-c]pyridin-1-one] |
| 0.1 to 0.5 | 0.1 to 0.5 | > 1 | Cc1ccc(Oc2ccc([C@H](C)Nc3nccc4c3CN(CC(F)F)C4=O)cc2F)cc1 [Compound 17, (S)-2-(2,2-difluoroethyl)-4-((1-(3-fluoro-4-(p-tolyloxy)phenyl)ethyl)amino)-2,3-dihydro-1H-pyrrolo[3,4-c]pyridin-1-one] |
| < 0.1 | 0.1 to 0.5 | > 1 | CCN1Cc2c(ccnc2N[C@@H](C)c2cc(F)c(Oc3ccc4c(ccn4C)c3)cc2F)C1=O [Compound 21, (S)-4-((1-(2,5-difluoro-4-((1-methyl-1H-indol-5-yl)oxy)phenyl)ethyl)amino)-2-ethyl-2,3-dihydro-1H-pyrrolo[3,4-c]pyridin-1-one] |
| < 0.1 | < 0.1 | < 0.1 | CCN1Cc2c(ccnc2N[C@@H](C)c2cc(F)c(OC3CC(C)CC(C)(C)C3)cc2F)C1=O (stereo partly drawn) [Compound 22, 4-(((1S)-1-(2,5-difluoro-4-((3,3,5-trimethylcyclohexyl)oxy)phenyl)ethyl)amino)-2-ethyl-2,3-dihydro-1H-pyrrolo[3,4-c]pyridin-1-one] |
| < 0.1 | < 0.1 | < 0.1 | CCN1Cc2c(ccnc2N[C@@H](C)c2cc(F)c(O[C@@H]3C[C@@H](C)CC(C)(C)C3)cc2F)C1=O [Compound 23, 4-(((S)-1-(2,5-difluoro-4-(((1R,5S)-3,3,5-trimethylcyclohexyl)oxy)phenyl)ethyl)amino)-2-ethyl-2,3-dihydro-1H-pyrrolo[3,4-c]pyridin-1-one] |
| < 0.1 | < 0.1 | < 0.1 | CCN1Cc2c(ccnc2N[C@@H](C)c2cc(F)c(O[C@H]3C[C@@H](C)CC(C)(C)C3)cc2F)C1=O [Compound 24, 4-(((S)-1-(2,5-difluoro-4-(((1S,5S)-3,3,5-trimethylcyclohexyl)oxy)phenyl)ethyl)amino)-2-ethyl-2,3-dihydro-1H-pyrrolo[3,4-c]pyridin-1-one] |

From patent US12441725B2, “ISO-citrate dehydrogenase (IDH) inhibitor” (ZHEJIANG METON PHARMACEUTICAL CO., LTD, priority 2019, dated 2025)
